Measured values taken from publication PMC7827014, “Synthetic Transition from Thiourea-Based Compounds to Tetrazole Derivatives: Structure and Biological Evaluation of Synthesized New N-(Furan-2-ylmethyl)-1H-tetrazol-5-amine Derivatives” (Molecules, 2021).
In brackets after ≈: the same amount, converted by molar mass. Where two headings read alike, the source gives them in different places.

Assays:
S. aureus NCTC 4163 = test: MIC microdilution, standard strain; type: cell-based; conditions: Staphylococcus aureus, NCTC4163; S. aureus NCTC 4163, 18 h, 35 °C; read-out: MIC
S. aureus ATCC 29213 = test: MIC microdilution, standard strain; type: cell-based; conditions: Staphylococcus aureus, ATCC29213; S. aureus ATCC 29213, 18 h, 35 °C; read-out: MIC
[1] = tested on: S. epidermidis ATCC 12228; test: MIC microdilution, standard strain; type: cell-based; conditions: Staphylococcus epidermidis, ATCC12228; S. epidermidis ATCC 12228, 18 h, 35 °C; read-out: MIC
E. hirae ATCC 10541 = test: MIC microdilution, standard strain; type: cell-based; conditions: Enterococcus hirae, ATCC10541; E. hirae ATCC 10541, 18 h, 35 °C; read-out: MIC
E. coli ATCC 25922 = test: MIC microdilution, standard strain; type: cell-based; conditions: Escherichia coli, ATCC25922; E. coli ATCC 25922, 18 h, 35 °C; read-out: MIC
E. coli NCTC 8196 = test: MIC microdilution, standard strain; type: cell-based; conditions: Escherichia coli, NCTC8196; E. coli NCTC 8196, 18 h, 35 °C; read-out: MIC
[2] = tested on: S. epidermidis KR 4047 825/19; test: MIC microdilution, clinical isolate; type: cell-based
[3] = tested on: S. epidermidis KR 4243 829/19; test: MIC microdilution, clinical isolate; type: cell-based; conditions: Staphylococcus epidermidis, KR4243829/19
[4] = tested on: S. epidermidis KR 4268 830/19; test: MIC microdilution, clinical isolate; type: cell-based; conditions: Staphylococcus epidermidis, KR4268830/19
[5] = tested on: S. epidermidis KR 4313 834/19; test: MIC microdilution, clinical isolate; type: cell-based; conditions: Staphylococcus epidermidis, KR4313834/19
[6] = tested on: S. epidermidis KR 4358/2 840/19; test: MIC microdilution, clinical isolate; type: cell-based; conditions: Staphylococcus epidermidis, KR4358/2840/19
[7] = tested on: S. epidermidis T 5253 845/19; test: MIC microdilution, clinical isolate; type: cell-based; conditions: Staphylococcus epidermidis, T5253845/19
[8] = tested on: S. epidermidis T 5399 848/19; test: MIC microdilution, clinical isolate; type: cell-based; conditions: Staphylococcus epidermidis, T5399848/19
[9] = tested on: S. epidermidis T 5501 851/19; test: MIC microdilution, clinical isolate; type: cell-based; conditions: Staphylococcus epidermidis, T5501851/19
S. aureus T5384/48 = test: MIC microdilution, clinical isolate; type: cell-based; conditions: Staphylococcus aureus
S. aureus 203/19 = test: MIC microdilution, clinical isolate; type: cell-based; conditions: Staphylococcus aureus
S. aureus T5403/51 = test: MIC microdilution, clinical isolate; type: cell-based; conditions: Staphylococcus aureus
S. aureus 176/13 = test: MIC microdilution, clinical isolate; type: cell-based; conditions: Staphylococcus aureus
S. aureus T5241/46 = test: MIC microdilution, clinical isolate; type: cell-based; conditions: Staphylococcus aureus
S. aureus 155/6 = test: MIC microdilution, clinical isolate; type: cell-based; conditions: Staphylococcus aureus
S. aureus T5591/68 = test: MIC microdilution, clinical isolate; type: cell-based; conditions: Staphylococcus aureus
S. aureus T5595/69 = test: MIC microdilution, clinical isolate; type: cell-based; conditions: Staphylococcus aureus
M. tuberculosis H37Rv = test: In vitro antitubercular MIC; type: cell-based; conditions: Mycobacterium tuberculosis, read-out: Minimal inhibitory concentration
[10] = tested on: M. tuberculosis INH susceptible (Spec. 192); test: In vitro antitubercular MIC; type: cell-based; conditions: Mycobacterium tuberculosis, read-out: Minimal inhibitory concentration
Caco-2 = test: MTT assay 72 h; type: cell-based; conditions: Homo sapiens; Caco-2, MTT 72 h, mean ± SD; read-out: IC50
Experimental: (§1) The cell viability was assessed by using an enzymatic conversion of 3-(4,5-dimethylthiazol-2-yl)-2,5-diphenyltetrazolium bromide salt (MTT) to insoluble formazan crystals by mitochondrial dehydrogenases, occurring in living cells. Cells were cultured in 96-well plates at a density of l × 10^4 cells per well, and cultured to adhere for 24 h at 37 °C in a CO2 incubator. After 24 h of incubation, culture medium was replaced with a fresh medium, then cells were treated with various concentrations of the compounds and incubated for 72 h at 37 °C in a CO2 incubator. Untreated cells were used as the control. Subsequently, MTT solution (0,5 mg/mL in free-serum medium) was added, and samples were incubated for 4 h at 37 °C in a CO2 incubator. Then, the medium was aspirated, and formed formazan crystals were solubilized by adding an isopropanol-DMSO mixture (1:1 vol). The intensity of the dissolved crystals was measured using a UVM 340 reader (ASYS Hitech GmbH, Austria), at a wavelength of 570 nm. Cell viability was presented as a percent of MTT reduced in treated cells versus control cells (incubated without tested compounds). The relative MTT level (%) was calculated as [A]/[B]×100, where [A] is the absorbance of the test sample, and [B] is the absorbance of the control sample containing the untreated cells. The IC50 value was estimated using CalcuSyn version 1.0. […]
(§2) Antiproliferative activity of tested compounds. Data are given as IC50 [µM] and SI.
(§3) Human immortal keratinocyte cell line from adult human skin (HaCaT), Human colorectal adenocarcinoma (CaCo-2), Human epithelial lung carcinoma cell line (A549) and Human melanoma cell line (HTB-140). Data are expressed as mean ± SD. The SI (Selectivity Index) was calculated for each compound using formula: SI = IC50 for normal cel line / IC50 cancer cel line.

A549 = test: MTT assay 72 h; type: cell-based, human; conditions: Homo sapiens; A549, MTT 72 h, mean ± SD; read-out: IC50
Experimental: as §1, §2, §3

HTB-140 = test: MTT assay 72 h; type: cell-based, human; conditions: Homo sapiens; HTB-140, MTT 72 h, mean ± SD
Experimental: as §1, §2, §3

HaCaT = test: MTT assay 72 h; type: cell-based, human; conditions: Homo sapiens; HaCaT normal cells, MTT 72 h, mean ± SD; read-out: IC50
Experimental: as §1, §2, §3

[11] = tested on: standard bacterial strains; test: MIC, panel of standard bacterial strains; type: cell-based
Experimental: (§4) Compounds were screened for their minimal inhibitory concentrations (MICs).
(§5) The antimicrobial assays were conducted using reference strains of bacteria derived from international microbe collections—American Type Culture Collection (ATCC) and National Collection of Type Culture (NCTC). […] The antimicrobial activity of compounds was expressed by minimum inhibitory concentration values (MICs), according to CLCI reference procedures with some modifications. MIC was tested by the two-fold serial microdilution method (in 96-well microtiter plates) on MH II liquid medium. […] The stock solution of tested compounds was prepared in DMSO, and diluted in sterile medium (to a maximum of 1% of solvent content). […] Clinical microorganisms used in this study were obtained from the collection of the Department of Pharmaceutical Microbiology, Medical University of Warsaw, Poland.

[12] = tested on: hospital staphylococcal isolates; test: MIC, panel of clinical staphylococcal isolates; type: cell-based
Experimental: as §4, §5

Work on `Fc1ccccc1-n1nnnc1NCc1ccco1` [Compound 6, 1-(2-fluorophenyl)-N-(furan-2-ylmethyl)-1H-tetrazol-5-amine] yielded an MIC (S. aureus NCTC 4163) of 8 µg/mL (≈ 30.9 µM), an MIC (S. aureus ATCC 29213) of 8 µg/mL (≈ 30.9 µM) and an MIC [1] of 32 µg/mL (≈ 123 µM). The MIC (E. hirae ATCC 10541) was 16 µg/mL (≈ 61.7 µM), the MIC (E. coli ATCC 25922) was 16 µg/mL (≈ 61.7 µM) and the MIC (E. coli NCTC 8196) was 512 µg/mL (≈ 1970 µM). For the same compound, the “strength relative to Ciprofloxacin” value ([2]; S. epidermidis KR 4047 825/19 isolate) was “half of the Ciprofloxacin strength”, the MIC ([2]; Staphylococcus epidermidis, KR4047825/19, clinical isolate S. epidermidis KR 4047 825/19) was 8 µg/mL (≈ 30.9 µM) and the MIC [3] was 4 µg/mL (≈ 15.4 µM). For the same compound, the MIC [4] was 8 µg/mL (≈ 30.9 µM), the MIC [5] was 4 µg/mL (≈ 15.4 µM) and the MIC [6] was 4 µg/mL (≈ 15.4 µM). The MIC [7] was 8 µg/mL (≈ 30.9 µM), the MIC [8] was 4 µg/mL (≈ 15.4 µM) and the MIC [9] was 2 µg/mL (≈ 7.71 µM). For the same compound, the MIC (S. aureus T5384/48) was 8 µg/mL (≈ 30.9 µM), the MIC (S. aureus 203/19) was 8 µg/mL (≈ 30.9 µM) and the MIC (S. aureus T5403/51) was 8 µg/mL (≈ 30.9 µM). For the same compound, the MIC (S. aureus 176/13) was 8 µg/mL (≈ 30.9 µM), the MIC (S. aureus T5241/46) was 8 µg/mL (≈ 30.9 µM) and the MIC (S. aureus 155/6) was 16 µg/mL (≈ 61.7 µM). The MIC (S. aureus T5591/68) was 8 µg/mL (≈ 30.9 µM), the MIC (S. aureus T5595/69) was 8 µg/mL (≈ 30.9 µM) and the MIC (M. tuberculosis H37Rv) was 512 µg/mL (≈ 1970 µM). For the same compound, the MIC [10] was 512 µg/mL (≈ 1970 µM), the IC50 (Caco-2) was > 100 µM and the IC50 (A549) was > 100 µM. The IC50 (HTB-140) was > 100 µM, the IC50 (HaCaT) was > 100 µM and the MIC ([11]; some Gram-negative strains) was 16 µg/mL (≈ 61.7 µM). The “MIC (range)” value ([11]; standard Staphylococci) was 8 to 32 µg/mL, the MIC ([12]; Staphylococcus aureus, rest of studied Staphylococci, except S. aureus 155/6, read-out: MICs) was 8 µg/mL (≈ 30.9 µM) and the MIC ([12]; Staphylococcus epidermidis, four hospital S. epidermidis isolates, read-out: MIC) was 4 µg/mL (≈ 15.4 µM). For the same compound, the “growth inhibitory strength relative to Ciprofloxacin” value ([12]; two clinical S. epidermidis strains) was 8–16 fold.
